Laboratory results reported in publication PMC4409069 (PLoS ONE, 2015).
Read-outs that look alike come from different tables or passages of the source. Ends that are not written are not given here.

How the values were obtained:
[1] = tested on: neuraminidase (NA) activity of Phil82; assay type: biochemical, influenza A virus
[2] = tested on: A/California/04/09/H1N1 pandemic strain (Cal09); assay type: cell-based, influenza A virus
[3] = tested on: A/New York/312/01/H1N1 (NY01) seasonal strain; assay type: cell-based, influenza A virus
[4] = tested on: Mex 1:7 (HA gene of A/Mexico/4108/09/H1N1 with the other 7 genes of NY01); assay type: cell-based, influenza A virus
[5] = tested on: Mex 2:6 (HA and NA of A/Mexico/09/H1N1, other genes of NY01); assay type: cell-based, influenza A virus
[6] = tested on: A/Philippines/2/82/H3N2 (Phil82); assay type: cell-based, influenza A virus; details: for IC50: read-out: approximate 50% viral neutralizing concentration
[7] = tested on: A/California/04/09/H1N1 pandemic strain (Cal09); assay type: cell-based, influenza A virus; remark: listed apart in the source
[8] = tested on: A/California/04/09/H1N1 pandemic strain (Cal09); assay type: cell-based, influenza A virus; remark: listed apart in the source
[9] = tested on: MDCK cells; test: LDH assay of cell viability, MDCK cells; assay type: cell-based, canine; details: peptide 12.8 μM, 24 hrs, mean±SEM of 3 or 4 experiments
Procedure: The LDH assay was performed using LDH cytoxicity detection kit (Clontech, CA, USA) according to the manufacturer’s instructions. In brief, MDCK cells were incubated with Phil82 IAV (with or without LL-37 and related peptides). Cells were also incubated with peptides alone. The incubation time (24 hrs) and assay conditions were exactly same as in fluorescent focus assays. The LDH activity was measured after the 24 hrs incubation of cells with IAV and/or peptides. Controls included uninfected/untreated cells as negative control (NC) and cells treated with lysis solution as positive control (PC). The percent cytotoxicity is obtained from OD values using the formula: [(Sample OD—NC OD) ÷ (PC OD—NC OD)] ×100

[10] = tested on: HBTE cells; test: LDH assay of cell viability, HBTE cells; assay type: cell-based, human; details: 24 hrs, mean±SEM of 3 or 4 experiments
[11] = tested on: hemagglutination activity of Phil82 IAV; test: Hemagglutination (HA) inhibition assay; assay type: biochemical, influenza A virus; details: concentrations up to 12μM, three experiments, human type O red cells
Procedure: HA inhibition was measured by serially diluting LL-37 peptides in round bottom 96 well plates (Serocluster U-Vinyl plates; Costar, Cambridge, MA) using PBS as a diluent and human type O red cells as described. 40 HA units of virus was used in the assay.

[12] = tested on: A/PR/8/34/H1N1 (PR-8); assay type: cell-based, influenza A virus
[13] = tested on: NA activity of Cal09; assay type: biochemical, influenza A virus
[14] = tested on: NY01; assay type: cell-based, influenza A virus
[15] = tested on: Cal09; assay type: cell-based, influenza A virus
[16] = HBTE no IAV, peptide 12.8 μM, LL-23V9 n = 1, * significantly reduced vs control
[17] = HBTE+IAV (Phil82), peptide 12.8 μM, LL-23V9 n = 1, * significantly reduced vs control
[18] = read-out: approximate 50% viral neutralizing concentration

Compound	effect on replication, in words [2]	antiviral (neutralizing) activity, in words [6]	effect on infectivity, in words [7]	effect on infectivity, in words [8]	% Viability of MDCK or HBTE Cells ([9]; MDCK no IAV)	% Viability of MDCK or HBTE Cells ([9]; MDCK+IAV (Phil82))	% Viability of MDCK or HBTE Cells [10, 16]	% Viability of MDCK or HBTE Cells [10, 17]	inhibition of hemagglutination activity [11]	other results
CCOC(=O)C1=C[C@@H](OC(CC)CC)[C@H](NC(C)=O)[C@@H](N)C1 [Oseltamivir]	–	–	–	–	–	–	–	–	–	inhibition of NA activity, in words [1]: marked reduction of NA activity
HNP-1: the human defensin HNP-1 (human neutrophil peptide), purchased from Bachem [reference compound]	did inhibit Cal09	–	–	–	–	–	–	–	–	–
CRAMP [reference compound]	did not significantly inhibit	–	–	–	–	–	–	–	–	effect on replication, in words [3]: inhibited (albeit modestly); effect on replication, in words [4]: inhibited (albeit modestly); effect on replication, in words [5]: did not significantly inhibit
GIKEFKRIVQRIKDFLRNLV-NH2 [GI-20]	significant inhibition	approached or equaled that of full length LL-37	significant inhibition	significant inhibition	103±7%	107±3%	103±3%	104±3%	No inhibition was observed	–
LLGDFFRKSKEKIGKEFKRIVQR [LL-23]	modest but statistically significant inhibition	slight antiviral activity	without activity	without activity	105±4%	101±11%	98±1%	98±3%	No inhibition was observed	approximate 50% viral neutralizing concentration [6]: >32μg/ml (>11.3 μM); IC50 [6]: > 11.3 µM; approximate 50% viral neutralizing concentration [12]: >32μg/ml (>11.3 μM); IC50 [12, 18]: > 11.3 µM; approximate 50% viral neutralizing concentration [3]: >32μg/ml (>11.3 μM); IC50 [3, 18]: > 11.3 µM
LLGDFFRKVKEKIGKEFKRIVQR [LL-23V9]	modest but statistically significant inhibition	significantly increased activity compared to LL-23	without activity	without activity	112±6%	108±7%	103%	99%	No inhibition was observed	–
CC[C@H](C)[C@H](NC(=O)[C@H](CCCCN)NC(=O)[C@H](CCC(=O)O)NC(=O)[C@H](CCCCN)NC(=O)[C@H](CO)NC(=O)[C@H](CCCCN)NC(=O)[C@H](CCCNC(=N)N)NC(=O)[C@H](Cc1ccccc1)NC(=O)[C@H](Cc1ccccc1)NC(=O)[C@H](CC(=O)O)NC(=O)CNC(=O)[C@H](CC(C)C)NC(=O)[C@@H](N)CC(C)C)C(=O)NCC(=O)N[C@@H](CCCCN)C(=O)N[C@@H](CCC(=O)O)C(=O)N[C@@H](Cc1ccccc1)C(=O)N[C@@H](CCCCN)C(=O)N[C@@H](CCCNC(=N)N)C(=O)N[C@H](C(=O)N[C@H](C(=O)N[C@@H](CCC(N)=O)C(=O)N[C@@H](CCCNC(=N)N)C(=O)N[C@H](C(=O)N[C@@H](CCCCN)C(=O)N[C@@H](CC(=O)O)C(=O)N[C@@H](Cc1ccccc1)C(=O)N[C@@H](CC(C)C)C(=O)N[C@@H](CCCNC(=N)N)C(=O)N[C@@H](CC(N)=O)C(=O)N[C@@H](CC(C)C)C(=O)N[C@H](C(=O)N1CCC[C@H]1C(=O)N[C@@H](CCCNC(=N)N)C(=O)N[C@H](C(=O)N[C@@H](CCC(=O)O)C(=O)N[C@@H](CO)C(=O)O)[C@@H](C)O)C(C)C)[C@@H](C)CC)C(C)C)[C@@H](C)CC [LL-37, reference compound]	only slight inhibition at intermediate doses of LL-37 and actual enhancement of the replication of this strain at higher doses	clear dose-related antiviral activity	–	–	92±11%	99±12%	57±6* %	55±6* %	No inhibition was observed	IC50 [6]: ~2 µg/mL; effect on replication, in words [3]: clear dose related inhibition; effect on replication, in words [4]: inhibited at all concentrations tested; effect on replication, in words [5]: inhibited by LL-37 at the lower concentration of 2.2μM but higher concentrations of LL-37 were not inhibitory; % Viability of MDCK or HBTE Cells ([10]; HBTE no IAV, peptide 6.4 μM): 95±2%; % Viability of MDCK or HBTE Cells ([10]; HBTE+IAV (Phil82), peptide 3.2 μM): 105±4%; % Viability of MDCK or HBTE Cells ([10]; HBTE+IAV (Phil82), peptide 6.4 μM): 91±4%; inhibition of NA activity, in words [1]: neither LL-37 nor the related peptides inhibited NA activity; inhibition of NA activity, in words [13]: did not inhibit NA activity; concentrations that significantly decreased viral RNA in supernatants and cells [14]: ≥ 0.4 µM; viral RNA at 24 hrs after infection, in words [14]: significant reduction in RNA of NY01 in both cells and supernatant; viral uptake by MDCK cells (viral M protein RNA), in words [14]: significant reduction of uptake; viral RNA at 24 hrs after infection, in words [15]: trend to increase of Cal09 in the cells in presence of LL-37 but this was again highly variable and not statistically significant; viral uptake by MDCK cells (viral M protein RNA in cell lysate), in words [15]: no significant difference in viral uptake
